Drawing on patent publication US20090239841A1, “Diaryl Ureas as CB1 Antagonists” (priority 2004, published 2009), this text covers IC50 for 50 molecules.

Structures are written as SMILES. Read-outs that look alike come from different tables or passages of the source.

The target in the assay is T1, hCB1 (Homo sapiens, UniProt P21554).
T1 construct: made in house; host or cells: Sf9 insect cells (baculovirus), P2 membranes
Kind of assay: Agonist-induced GTP binding (GTPγ35S) assay at CB1, Example 8. The class given is biochemical. To be noted: read-out: IC50. In short, it runs like this:
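Antagonism read as inhibition of 1 nM CP55,940-stimulated GTPγ35S ([…]) binding, compounds at 10^−10 to 10^−5 M. Baculovirus-infected Sf9 membranes bearing hCB1 plus G-protein subunits, 60 min room-temperature incubation with 5 μM GDP. Filtration and scintillation counting; data as percent over basal.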

The mark [1] stands for this setting: IC50 at CB1, determined as described in Example 8.
[2] abbreviates: Table II, IC50 at CB1, GTP binding with 1 nM CP55,940.
[3] abbreviates: Table I, IC50 at CB1, GTP binding with 1 nM CP55,940.

T1 sequence (P21554 whole entry): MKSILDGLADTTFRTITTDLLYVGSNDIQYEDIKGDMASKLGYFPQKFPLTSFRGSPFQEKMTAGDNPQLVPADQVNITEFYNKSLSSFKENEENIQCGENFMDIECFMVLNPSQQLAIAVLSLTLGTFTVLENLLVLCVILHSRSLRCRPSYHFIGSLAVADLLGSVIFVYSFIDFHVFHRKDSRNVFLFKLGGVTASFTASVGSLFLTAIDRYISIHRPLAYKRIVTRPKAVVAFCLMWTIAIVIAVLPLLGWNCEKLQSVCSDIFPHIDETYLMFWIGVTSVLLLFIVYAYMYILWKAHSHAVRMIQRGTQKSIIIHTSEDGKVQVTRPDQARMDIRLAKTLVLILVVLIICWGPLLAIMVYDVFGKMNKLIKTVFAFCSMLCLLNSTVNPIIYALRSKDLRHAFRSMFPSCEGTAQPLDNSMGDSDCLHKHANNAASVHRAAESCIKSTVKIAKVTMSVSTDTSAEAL

The IC50 is the point on the concentration scale where inhibition reaches its midpoint. Consider `CCOC(=O)c1cccc(NC(=O)Nc2ccc(S(C)(=O)=O)cc2)c1` [Compound 723, ethyl 3-[({[4-(methylsulfonyl)phenyl]amino}carbonyl)amino] benzoate], for which the IC50 under setting [1] was less than 2 µM.

`CCC(=O)c1ccc(NC(=O)Nc2ccc(C)cc2)cc1` [Compound 469, 1-(4-methylphenyl)-3-(4-propionylphenyl)urea]: the IC50 under setting [1] is less than 2 µM.

Consider `CC(=O)c1cccc(NC(=O)Nc2ccc3c(c2)CCC3)c1` [Compound 455, 1-(3-acetylphenyl)-3-(2,3-dihydro-1H-inden-5-yl)urea], for which, under setting [1], the IC50 was less than 2 µM.

Turning to `COCc1ccc(NC(=O)Nc2ccc(OC)cc2)cc1` [Compound 545, 1-[4-(methoxymethyl)phenyl]-3-(4-methoxyphenyl)urea], under setting [1], the IC50 is less than 2 µM.

Take `CC(=O)c1cccc(NC(=O)Nc2ccc(C)c(F)c2)c1` [Compound 449, 1-(3-acetylphenyl)-3-(3-fluoro-4-methylphenyl)urea]: under setting [1], the IC50 is less than 2 µM.

For the molecule `O=C(Nc1ccc(OC(F)F)cc1)Nc1ccc(C(F)(F)F)cc1` [Compound 77, N-[4-(difluoromethoxy)phenyl]-N′-[4-(trifluoromethyl)phenyl]urea], under setting [2], the IC50 is less than 2 µM.

Consider `CC(C)Oc1cccc(NC(=O)Nc2ccc(C(C)C)cc2)c1` [Compound 574, 1-(3-isopropoxyphenyl)-3-(4-isopropylphenyl)urea], for which the IC50 under setting [1] was less than 2 µM.

Consider `CC(C)Oc1ccc(NC(=O)Nc2ccc(Cl)cc2)cc1` [Compound 405, 1-(4-chlorophenyl)-3-(4-isopropoxyphenyl)urea], for which the IC50 under setting [1] is less than 2 µM.

Regarding `O=C(Nc1ccc(OC(F)F)cc1)Nc1cccc(Oc2ncccn2)c1` [Compound 108, N-[4-(difluoromethoxy)phenyl]-N′-[3-(pyrimidin-2-yloxy)phenyl]urea], under setting [2], the IC50 was less than 2 µM.

Turning to `CCOc1ccc(NC(=O)Nc2ccc(F)c(C)c2)cc1` [Compound 617, 1-(4-ethoxyphenyl)-3-(4-fluoro-3-methylphenyl)urea], the half-inhibitory concentration (IC50) under setting [1] is less than 2 µM.

For `O=C(Nc1ccc(OC(F)F)cc1)Nc1cc(C2CC2)n[nH]1` [Compound 106, N-(3-cyclopropyl-1H-pyrazol-5-yl)-N′-[4-(difluoromethoxy)phenyl]urea], the IC50 under setting [2] was less than 2 µM.

As to `COc1ccc(NC(=O)Nc2cccc(OC(C)C)c2)cc1` [Compound 549, 1-(3-isopropoxyphenyl)-3-(4-methoxyphenyl)urea], the IC50 under setting [1] is less than 2 µM.

As to `Cc1cc(NC(=O)Nc2cccc(OC(F)F)c2)ccc1F` [Compound 697, 1-[3-(difluoromethoxy)phenyl]-3-(4-fluoro-3-methylphenyl)urea], under setting [1], the IC50 is less than 2 µM.

Consider `N#CCOc1ccc(NC(=O)Nc2cccc(Cl)c2)cc1` [Compound 490, 1-(3-chlorophenyl)-3-[4-(cyanomethoxy)phenyl]urea], for which the IC50 under setting [1] is less than 2 µM.

As for `O=C(Nc1ccc(OC(F)F)cc1)Nc1cccc([N+](=O)[O-])c1` [Compound 568, 1-[4-(difluoromethoxy)phenyl]-3-(3-nitrophenyl)urea], the IC50 under setting [1] is less than 2 µM.

On to `CCOC(=O)c1cccc(NC(=O)Nc2cccc(OC(C)C)c2)c1` [Compound 672, ethyl 3-({[(3-isopropoxyphenyl)amino]carbonyl}amino)benzoate], for which the IC50 under setting [1] is less than 2 µM.

Turning to `CCc1cccc(NC(=O)Nc2ccc(C)cc2)c1` [Compound 324, 1-(3-ethylphenyl)-3-(4-methylphenyl)urea], the IC50 under setting [1] was less than 2 µM.

Take `O=C(Nc1ccc(OC(F)F)cc1)Nc1cccc(F)c1` [Compound 16, N-[4-(difluoromethoxy)phenyl]-N′-(3-fluorophenyl)urea]: the IC50 under setting [3] was less than 2 µM.

On to `CCOc1cccc(NC(=O)Nc2ccc([N+](=O)[O-])cc2)c1` [Compound 558, 1-(3-ethoxyphenyl)-3-(4-nitrophenyl)urea], for which the IC50 under setting [1] was less than 2 µM.

As to `CCOc1ccc(NC(=O)Nc2ccc(Cl)cc2)cc1` [Compound 390, 1-(4-chlorophenyl)-3-(4-ethoxyphenyl)urea], the IC50 under setting [1] was less than 2 µM.

Consider `CC(=O)c1ccc(NC(=O)Nc2ccc(Cl)nc2)cc1` [Compound 637, 1-(4-acetylphenyl)-3-(6-chloropyridin-3-yl)urea], for which the IC50 under setting [1] is less than 2 µM.

On to `CCOC(=O)c1cccc(NC(=O)Nc2ccc(OC(F)F)cc2)c1` [Compound 148, ethyl 3-[({[4-(difluoromethoxy)phenyl]amino}carbonyl)amino]benzoate], for which, under setting [2], the IC50 was less than 2 µM.

Turning to `O=C(Nc1ccc(F)c(F)c1)Nc1ccc2c(c1)CCC2` [Compound 775, 1-(3,4-difluorophenyl)-3-(2,3-dihydro-1H-inden-5-yl)urea], the IC50 under setting [1] is less than 2 µM.

As for `CC(C)Oc1ccc(NC(=O)Nc2cccc(F)c2)cc1` [Compound 367, 1-(3-fluorophenyl)-3-(4-isopropoxyphenyl)urea], under setting [1], the IC50 was less than 2 µM.

As to `CCc1ccc(NC(=O)Nc2ccc(OCC#N)cc2)cc1` [Compound 489, N-[4-(cyanomethoxy)phenyl]-N′-(4-ethylphenyl)urea], the IC50 under setting [1] was less than 2 µM.

For `CCOC(=O)c1ccc(NC(=O)Nc2ccc(F)cc2)cc1` [Compound 476, ethyl 4-({[(4-fluorophenyl)amino]carbonyl}amino)benzoate], the IC50 under setting [1] was less than 2 µM.

For `CCCOc1ccc(NC(=O)Nc2ccc(C(C)C)cc2)cc1` [Compound 573, 1-(4-isopropylphenyl)-3-(4-propoxyphenyl)urea], the IC50 under setting [1] is less than 2 µM.

Take `COC(=O)c1ccc(NC(=O)Nc2ccc(OC(F)F)cc2)cc1OC` [Compound 134, methyl 4-[({[4-(difluoromethoxy)phenyl]amino}carbonyl)amino]-2-methoxybenzoate]: the IC50 under setting [2] was less than 2 µM.

Regarding `CCCc1ccc(NC(=O)Nc2ccc(OCC)cc2)cc1` [Compound 526, 1-(4-ethoxyphenyl)-3-(4-propylphenyl)urea], the IC50 under setting [1] is less than 2 µM.

Consider `CCc1ccc(NC(=O)Nc2ccc(OC)cc2)cc1` [Compound 382, 1-(4-ethylphenyl)-3-(4-methoxyphenyl)urea], for which the half-inhibitory concentration (IC50) under setting [1] was less than 2 µM.

In the case of `COc1ccc(NC(=O)Nc2ccc(OC(F)F)cc2)cc1OC` [Compound 92, N-[4-(difluoromethoxy)phenyl]-N′-(3,4-dimethoxyphenyl)urea], under setting [2], the IC50 was less than 2 µM.

Turning to `Cc1ccc(NC(=O)Nc2ccc(OCC#N)cc2)cc1F` [Compound 730, 1-[4-(cyanomethoxy)phenyl]-3-(3-fluoro-4-methylphenyl)urea], the IC50 under setting [1] is less than 2 µM.

`COc1ccc(NC(=O)Nc2ccc(C(C)=O)cc2)cc1` [Compound 410, 1-(4-acetylphenyl)-3-(4-methoxyphenyl)urea]: the 50% inhibitory concentration (IC50) under setting [1] is less than 2 µM.

Take `COC(=O)c1cccc(NC(=O)Nc2ccc(C)c(F)c2)c1` [Compound 765, methyl 3-({[(3-fluoro-4-methylphenyl)amino]carbonyl}amino)benzoate]: under setting [1], the 50% inhibitory concentration (IC50) was less than 2 µM.

In the case of `CC(=O)c1ccc(NC(=O)Nc2cccc(OC(F)F)c2)cc1` [Compound 426, 1-(4-acetylphenyl)-3-[3-(difluoromethoxy)phenyl]urea], the IC50 under setting [1] was less than 2 µM.

Take `CCc1ccc(NC(=O)Nc2ccc(COC)cc2)cc1` [Compound 393, 1-(4-ethylphenyl)-3-[4-(methoxymethyl)phenyl]urea]: the IC50 under setting [1] was less than 2 µM.

For `Cc1ccc(NC(=O)Nc2ccc(C(=O)OC(C)C)cc2)cc1` [Compound 478, isopropyl 4-({[(4-methylphenyl)amino]carbonyl}amino)benzoate], the IC50 under setting [1] was less than 2 µM.

Regarding `COCc1ccc(NC(=O)Nc2cccc(C(C)=O)c2)cc1` [Compound 270, N-(3-acetylphenyl)-N′-[4-(methoxymethyl)phenyl]urea], the IC50 under setting [2] was less than 2 µM.

For `CC(C)Oc1cccc(NC(=O)Nc2ccc(F)cc2)c1` [Compound 212, N-(4-fluorophenyl)-N′-(3-isopropoxyphenyl)urea], the half-maximal inhibitory concentration (IC50) under setting [2] was less than 2 µM.

For `CC(C)c1ccc(NC(=O)Nc2ccc(OC(F)F)cc2)cc1` [Compound 518, 1-[4-(difluoromethoxy)phenyl]-3-(4-isopropylphenyl)urea], the IC50 under setting [1] is less than 2 µM.

As for `CCCc1ccc(NC(=O)Nc2ccc(C)cc2)cc1` [Compound 39, N-(4-methylphenyl)-N′-(4-propylphenyl)urea], the IC50 under setting [3] was less than 2 µM.

For `CCOC(=O)c1cccc(NC(=O)Nc2ccc(CCO)cc2)c1` [Compound 753, ethyl 3-[({[4-(2-hydroxyethyl)phenyl]amino}carbonyl)amino] benzoate], the IC50 under setting [1] is less than 2 µM.

As to `CCN(CC)C(=O)c1ccccc1NC(=O)Nc1ccc(OC(F)F)cc1` [Compound 603], under setting [1], the IC50 was less than 2 µM.

Turning to `CCOC(=O)c1ccc(NC(=O)Nc2cccc(OC)c2)cc1` [Compound 593, ethyl 4-({[(3-methoxyphenyl)amino]carbonyl}amino)benzoate], the IC50 under setting [1] is less than 2 µM.

Turning to `CCCc1ccc(NC(=O)Nc2ccc(C#N)cc2)cc1` [Compound 197, N-(4-cyanophenyl)-N′-(4-propylphenyl)urea], the IC50 under setting [2] was less than 2 µM.

As for `CCc1cccc(NC(=O)Nc2cccc(OC(C)C)c2)c1` [Compound 399, 1-(3-ethylphenyl)-3-(3-isopropoxyphenyl)urea], the IC50 under setting [1] is less than 2 µM.

In the case of `CCc1cccc(NC(=O)Nc2cccc(OC(C)C)c2)c1` [Compound 246, N-(3-ethylphenyl)-N′-(3-isopropoxyphenyl)urea], under setting [2], the IC50 was less than 2 µM.

As for `Cc1cccc(NC(=O)Nc2cccc(OC(F)F)c2)c1` [Compound 369, 1-[3-(difluoromethoxy)phenyl]-3-(3-methylphenyl)urea], the IC50 under setting [1] was less than 2 µM.

For the molecule `N#CCOc1ccc(NC(=O)Nc2cccc(F)c2)cc1` [Compound 466, 1-[4-(cyanomethoxy)phenyl]-3-(3-fluorophenyl)urea], the IC50 under setting [1] was less than 2 µM.

Take `CCc1ccc(NC(=O)Nc2ccc(C(C)C)cc2)cc1` [Compound 181, N-(4-ethylphenyl)-N′-(4-isopropylphenyl)urea]: the IC50 under setting [2] is less than 2 µM.
